Source: patent US20100323990A1, “SHIP 1 MODULATOR PRODRUGS” (THE UNIVERSITY OF BRITISH COLUMBIA, priority 2006, published 2010)

System: SHIP−/− bone marrow derived macrophages
Experiment: LPS-stimulated TNFα production in SHIP−/− bone marrow derived macrophages
Assay type: cell-based, mice
Details: SHIP−/− cells, 15 μM, 10 ng/mL LPS 2 h
Experimental: Bone marrow cells were aspirated from 4 to 8 week old C57B16×129Sv mixed background mice and SHIP^+/+ and SHIP^−/− mast cells prepared as described previously. Bone marrow derived macrophages from SHIP^+/+ and SHIP^−/− mice were obtained and maintained in IMDM supplemented with 10% FCS, 150 μM MTG, 2% C127 cell conditioned medium as a source of macrophage colony stimulating factor (M-CSF) (macrophage medium)
LPS stimulation of macrophages. For the analysis of LPS-stimulated TNFα production, 2×10^5 cells were plated the night before in 24 well plates in macrophage medium. The next day, the medium was changed and AQX-016A or carrier was added to cells at the indicated concentrations for 30 min prior to the addition of 10 ng/mL LPS. Supernatants were collected for TNFα determination by ELISA (BD Biosciences, Mississauga, ON, Canada). For analysis of intracellular signaling, 2×10^6 cells were plated the night before in 6 cm tissue culture plates. […] Calcium influx was monitored by spectrofluorometry. […] Total cell lysates were then prepared and analyzed for phospho-PKB, phospho-p38^MAPK, phospho-MAPK, Grb-2 (Cell Signalling, Mississauga, Ont) and SHIP^6 by immunoblot analysis.
The target specificity and biological efficacy of AQX-016A were assessed by comparing AQX-016A's effects on PI3K-regulated processes in primary SHIP^+/+ vs SHIP^−/− macrophages and mast cells. […]

Cc1cc(O)c(O)c2c1[C@]1(C)CCC3C(C)(C)CCC[C@]3(C)[C@H]1C2 (stereo partly shown) [AQX-016A]
suppression of TNFα production: 15%
